Where two headings read alike, the source gives them in different places. Marks after values point to notes of the source that are not given here.
Assay: Absorption spectrum measured in solution
[1] = molar extinction coefficient at λmax, solvent as given for λmax

Row | SMILES | ε [L/mol/cm] | λ1/2-λ1/10 [nm] | λmax | also measured
1 | CCN(CC)c1ccc(N=Nc2nc(C#N)c(C#N)n2C)c([N-]P(=O)(OCC(F)(F)C(F)F)OCC(F)(F)C(F)F)c1.CCN(CC)c1ccc(N=Nc2nc(C#N)c(C#N)n2C)c([N-]P(=O)(OCC(F)(F)C(F)F)OCC(F)(F)C(F)F)c1.[Co+2] [Example 3] | 92203 | 33 | 538^5) nm | 
2 | CCN(CC)c1ccc(N=Nc2nc(C#N)c(C#N)n2C)c([N-]P(=O)(OCC(F)(F)C(F)F)OCC(F)(F)C(F)F)c1.CCN(CC)c1ccc(N=Nc2nc(C#N)c(C#N)n2C)c([N-]P(=O)(OCC(F)(F)C(F)F)OCC(F)(F)C(F)F)c1.[Cu+2] [Example 4] | 88071 | 29 | 533^5) nm | 
3 | CCN(CC)c1ccc(N=Nc2nc(C#N)c(C#N)[nH]2)c([N-]P(=O)(OCC(F)(F)C(F)F)OCC(F)(F)C(F)F)c1.CCN(CC)c1ccc(N=Nc2nc(C#N)c(C#N)[nH]2)c([N-]P(=O)(OCC(F)(F)C(F)F)OCC(F)(F)C(F)F)c1.[Ni+2] [Example 5] | 70893 | 21 | 510^4) nm | 
4 | CCCNS(=O)(=O)[N-]c1cc(N(CC)CC)ccc1N=Nc1nc(C#N)c(C#N)[nH]1.CCCNS(=O)(=O)[N-]c1cc(N(CC)CC)ccc1N=Nc1nc(C#N)c(C#N)[nH]1.[Ni+2] [Example 6] |  |  |  | ε [1]: 34523 L/mol/cm; λ1/2-λ1/10 (on the long wavelength flank): 21 nm
5 | CCN(CC)c1ccc(N=Nc2nc(-c3ccccc3)ns2)c([N-]S(=O)(=O)N(C)C)c1.CCN(CC)c1ccc(N=Nc2nc(-c3ccccc3)ns2)c([N-]S(=O)(=O)N(C)C)c1.[Ni+2] [Example 11] | 86514 |  | 530 nm | 
6 | CCN(CC)c1ccc(N=Nc2nc(-c3ccccc3)ns2)c([N-]S(=O)(=O)N(C)C)c1.CCN(CC)c1ccc(N=Nc2nc(-c3ccccc3)ns2)c([N-]S(=O)(=O)N(C)C)c1.[Co+2] [Example 12] | 92750 | 32 | 551 nm | 
7 | CCN(CC)c1ccc(N=Nc2nc(C#N)c(C#N)n2C)c([N-]S(=O)(=O)N(C)C)c1.CCN(CC)c1ccc(N=Nc2nc(C#N)c(C#N)n2C)c([N-]S(=O)(=O)N(C)C)c1.[Ni+2] [Example 15] | 107238 | 21 | 540 nm | 
8 | CCN(CC)c1ccc(N=Nc2nc(C#N)c(C#N)n2C)c([N-]S(=O)(=O)N(C)C)c1.CCN(CC)c1ccc(N=Nc2nc(C#N)c(C#N)n2C)c([N-]S(=O)(=O)N(C)C)c1.[Co+2] [Example 16] | 94990 | 33 | 543 nm | 
9 | CCN(CC)c1ccc(N=Nc2nc(C#N)c(C#N)n2C)c([N-]S(=O)(=O)N(C)C)c1.CCN(CC)c1ccc(N=Nc2nc(C#N)c(C#N)n2C)c([N-]S(=O)(=O)N(C)C)c1.[Zn+2] [Example 17] | 111931 | 12 |  | 
10 | CCN(CC)c1ccc(N=Nc2nc(C#N)c(C#N)[nH]2)c([N-]S(=O)(=O)N(C)C)c1.CCN(CC)c1ccc(N=Nc2nc(C#N)c(C#N)[nH]2)c([N-]S(=O)(=O)N(C)C)c1.[Ni+2] [Example 18] |  |  |  | λmax (in methanol): 518^4) nm; ε [1]: 92143 L/mol/cm; λ1/2-λ1/10 (on the long wavelength flank): 21 nm
11 | CCN(CC)c1ccc(N=Nc2nc(-c3ccccc3)ns2)c([N]([Ni][N](c2cc(N(CC)CC)ccc2N=Nc2nc(-c3ccccc3)ns2)P(=O)(OC)c2ccccc2)P(=O)(OC)c2ccccc2)c1 (centres unmarked) [Example 23] | 90126 | 61 | 538^5) nm | 
12 | CCN(CC)c1ccc(N=Nc2nnc(C)s2)c([N]([Ni][N](c2cc(N(CC)CC)ccc2N=Nc2nnc(C)s2)S(=O)(=O)N(C)C)S(=O)(=O)N(C)C)c1 [Example 29] |  |  |  | λmax (in methylene chloride): 554 nm; ε [1]: 84070 L/mol/cm; λ1/2-λ1/10 (on the long wavelength flank): 26 nm
13 | CCN(CC)c1ccc(N=Nc2nnc(C)s2)c([N]([Co][N](c2cc(N(CC)CC)ccc2N=Nc2nnc(C)s2)S(=O)(=O)N(C)C)S(=O)(=O)N(C)C)c1 [Example 30] |  |  |  | λmax (in methylene chloride): 554 nm
14 | CCN(CC)c1ccc(N=Nc2nc(-c3ccccc3)ns2)c([N]([Ni][N](c2cc(N(CC)CC)ccc2N=Nc2nc(-c3ccccc3)ns2)S(=O)(=O)NCC(F)(F)C(F)F)S(=O)(=O)NCC(F)(F)C(F)F)c1 [Example 31] |  |  |  | λmax (in methylene chloride): 556 nm
15 | CCN(CC)c1cc([N]([Ni][N](c2cc(N(CC)CC)c(OC)cc2N=Nc2nc(-c3ccccc3)ns2)S(=O)(=O)N(C)C)S(=O)(=O)N(C)C)c(N=Nc2nc(-c3ccccc3)ns2)cc1OC [Example 35] |  |  | 544 nm | 
16 | CCN(CC)c1cc([N]([Ni][N](c2cc(N(CC)CC)c(C)cc2N=Nc2nc(-c3ccccc3)ns2)S(=O)(=O)N(C)C)S(=O)(=O)N(C)C)c(N=Nc2nc(-c3ccccc3)ns2)cc1C [Example 36] |  |  | 552^5) nm | 
17 | CCN(CC)c1cc([N]([Co][N](c2cc(N(CC)CC)c(C)cc2N=Nc2nc(-c3ccccc3)ns2)S(=O)(=O)N(C)C)S(=O)(=O)N(C)C)c(N=Nc2nc(-c3ccccc3)ns2)cc1C [Example 38] |  |  | 554^5) nm | 
